pIC50: −log10 of the molar value. Activity calls are given as the source filed them.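 Rule for the calls: active = mean IC50 for reducing PEG3 promoter reporter signal at or below a set limit, with IC50 above the limit in both counter screens; inactive = the rest, including counter screen hits.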
What was measured:
[1] = target: PEG-3 (UniProt Q6IN02); test: Peg3 promoter luciferase inhibitors, potency, dose response, cell-based, HeLa, CREF/GAPDH counter-screen panel (AID 624167); conditions: HeLa PEG-Prom luciferase reporter, overnight, CREF/GAPDH counter-screens, mean of runs
Chain of PEG-3 (UniProt Q6IN02) (Q6IN02 whole entry, looked up): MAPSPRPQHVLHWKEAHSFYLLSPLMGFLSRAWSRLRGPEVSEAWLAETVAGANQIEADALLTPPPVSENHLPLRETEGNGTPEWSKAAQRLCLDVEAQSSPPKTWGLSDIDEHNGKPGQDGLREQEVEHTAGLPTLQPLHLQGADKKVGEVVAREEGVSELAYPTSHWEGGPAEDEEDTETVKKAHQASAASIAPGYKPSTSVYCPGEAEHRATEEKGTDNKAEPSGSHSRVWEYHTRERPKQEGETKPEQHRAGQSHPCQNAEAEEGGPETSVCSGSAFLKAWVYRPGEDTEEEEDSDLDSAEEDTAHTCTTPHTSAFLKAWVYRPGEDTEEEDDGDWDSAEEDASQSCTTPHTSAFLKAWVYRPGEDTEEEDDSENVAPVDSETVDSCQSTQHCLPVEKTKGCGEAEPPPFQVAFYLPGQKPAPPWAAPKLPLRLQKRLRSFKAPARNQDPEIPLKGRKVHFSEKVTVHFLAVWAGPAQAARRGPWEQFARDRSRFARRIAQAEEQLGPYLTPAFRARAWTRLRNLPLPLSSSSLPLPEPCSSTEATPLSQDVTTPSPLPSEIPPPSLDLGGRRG

[2] = tested on: PEG-3; test: as above; conditions: HeLa PEG-Prom luciferase reporter, overnight, CREF/GAPDH counter-screens
[3] = run 1, dose range 1, individual replicate IC50 per panel
[4] = run 2, dose range 1, individual replicate IC50 per panel

Structure (SMILES)	pIC50 [1]	pIC50 [2, 3]	pIC50 [2, 4]	IC50 [1]
CN1CCC(N(C)S(=O)(=O)c2ccc(NC(=O)COc3ccc(Br)cc3Cl)cc2)CC1	4.73	4.64	4.84	–
O=C1NC(=O)N(Cc2ccc(F)cc2)C(=O)/C1=C\C=C\c1ccco1	4.83	4.78	4.89	–
CCCOc1ccc(NC(=O)CC2C(=O)N(CC)C(=S)N2CCCN2CCN(Cc3ccccc3)CC2)cc1 (stereo unspecified)	4.72	4.69	4.76	–
Cc1nn(-c2ccccc2)c2c1C(c1ccc([N+](=O)[O-])cc1)N1C(=N2)C(=O)Nc2ccccc21 (stereo unspecified)	–	< 4.00	< 4.00	> 100 µM (inactive)
CCCN1C/C(=C/c2cccc([N+](=O)[O-])c2)C(=O)/C(=C/c2cccc([N+](=O)[O-])c2)C1	–	5.17	< 4.00	inactive
O=C(C[C@H]1C[C@H](C(=O)N2CCCCC2)[C@@]2(CCc3ccccc3)c3[nH]c4ccc(Cl)cc4c3CCN2C1=O)NCCc1ccccn1	–	4.75	4.59	inactive
NCCCNc1nc(N)c([N+](=O)[O-])c(NC2CCCCC2)n1	4.91	4.97	4.86	–
Cc1nn(-c2ccccc2Cl)c(Cl)c1/C=N/Nc1nc2ccccc2s1	> 6.70	> 6.70	> 6.70	–
O=C(C(=O)N(Cc1ccccc1)Cc1ccccc1)c1c(-c2ccccc2)[nH]c2ccccc12	–	< 4.00	5.12	inactive
COC(=O)c1ccc(CNC(=O)Cn2cnc3c(NCc4ccccc4)ncnc32)cc1	–	4.53	4.81	inactive
CCOC(=O)c1ccc2ncc(C(=O)OCC)c(NCCN(C)C)c2c1	–	4.82	4.36	inactive
CC(=O)c1c(NCCc2ccccc2)nc(=S)n(-c2ccccc2)c1C	4.86	4.76	4.99	–
CC1(C)CC(NC(=O)c2sc3cc(Cl)ccc3c2Cl)CC(C)(C)N1	4.74	4.68	4.81	–
COc1ccc(-c2sc3ccccc3c2-c2ccc(OCCN3CCCCC3)cc2)cc1	–	4.68	4.69	inactive
CC(C)(C)C(=O)Nc1cc2nn(-c3ccccc3)nc2cc1Cl	4.91	4.96	4.87	–
CCCC(=O)NC(c1cccc([N+](=O)[O-])c1)c1ccc2cccnc2c1O (stereo unspecified)	4.95	5.50	4.72	–

Structure (SMILES)	pIC50 [1]	pIC50 [2, 3]	pIC50 [2, 4]	IC50 [1]
CC1CCCCN1S(=O)(=O)c1ccc(C(=O)N(CCCN(C)C)c2nc3ccc(Br)cc3s2)cc1 (stereo unspecified)	4.82	4.72	4.96	–
CCOc1cc(CNCCO)cc(Br)c1OCc1ccccc1Cl	–	4.39	4.13	inactive
COc1ccc(C(O)(CCC(C)C)C(CN2CCOCC2)c2ccccc2)cc1 (stereo unspecified)	–	4.52	4.52	inactive
COC(=O)c1ccc(OCC2c3cc(OC)c(OC)cc3CCN2C(=O)c2ccco2)cc1 (stereo unspecified)	4.71	4.60	4.87	–
Cc1ccc(C)c(CN2CCC(CNC(=O)Nc3ccc(F)c(Cl)c3)CC2)c1	4.83	4.76	4.92	–
O=C(CN1CCCC1)Nc1ccc(-c2nc3cc(NC(=O)CN4CCCC4)ccc3o2)cc1	–	< 4.00	< 4.00	> 100 µM (inactive)
CC1(C)CC(NCCN2CCN(C3=CC(=C(C#N)C#N)CC(C)(C)C3)CC2)=CC(=C(C#N)C#N)C1	–	< 4.00	5.08	inactive
CC(C)c1ccc(NC(=O)Nc2nc(C(C)N)cs2)cc1 (stereo unspecified)	4.77	4.70	4.86	–
CC(NC(=O)c1ccc([N+](=O)[O-])o1)C12CC3CC(CC(C3)C1)C2 (stereo unspecified)	–	4.49	4.83	inactive
CC1CCCC(C)N1C(=C(Cl)Cl)C(=C1SCCS1)[N+](=O)[O-] (stereo unspecified)	4.85	4.94	4.78	–
CCc1ccc2c(c1)Sc1ccccc1CC2N1CCN(C)CC1 (stereo unspecified)	–	4.70	4.42	inactive
COc1ccc(CNCCC(c2ccccc2)c2ccc(OC(C)C)cc2)cc1OC (stereo unspecified)	4.73	4.74	4.71	–
CC[n+]1c(-c2ccccc2)c2cc(N)ccc2c2ccc(N)cc21	4.80	5.11	4.63	–
O=C(c1ccco1)N1CCN(c2ncnc3c2[nH]c2ccc(Br)cc23)CC1	–	4.60	4.62	inactive
O=Cc1cn(Cc2ccc(F)cc2)c2ccccc12	4.74	4.90	4.62	–
COc1cccc(NC(=O)CN(C)C(=O)c2cccnc2Nc2cccc(C(F)(F)F)c2)c1	–	4.65	4.62	inactive

Source: PubChem BioAssay AID624167 (Sanford-Burnham Center for Chemical Genomics, 2012)
